Assay results: patent US20110182850A1, “ORGANIC COMPOUNDS AND THEIR USES” (priority 2009, published 2011)

molecular target: T1, HCV NS3-4A serine protease (full-length NS3-4A protein, genotype 1a, strain HCV-1) (Hepatitis C virus genotype 1a, UniProt P26664); assay: HCV NS3-4A protease assay; assay type: biochemical; settings: Protease IC50
T1 construct: using the full-length NS3-4A protein (genotype 1a, strain HCV-1)
Protocol: The inhibitory activity of certain compounds of Table A against HCV NS3-4A serine protease is determined in a homogenous assay using the full-length NS3-4A protein (genotype 1a, strain HCV-1) and a commercially available internally-quenched fluorogenic peptide substrate as described by Taliani, M., et al. 1996 Anal. Biochem. 240:60-67, which is incorporated by reference in its entirety.

T1 sequence (P26664 1658-1711): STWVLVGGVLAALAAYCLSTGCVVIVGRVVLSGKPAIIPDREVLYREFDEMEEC
T1 sequence (P26664 1027-1657): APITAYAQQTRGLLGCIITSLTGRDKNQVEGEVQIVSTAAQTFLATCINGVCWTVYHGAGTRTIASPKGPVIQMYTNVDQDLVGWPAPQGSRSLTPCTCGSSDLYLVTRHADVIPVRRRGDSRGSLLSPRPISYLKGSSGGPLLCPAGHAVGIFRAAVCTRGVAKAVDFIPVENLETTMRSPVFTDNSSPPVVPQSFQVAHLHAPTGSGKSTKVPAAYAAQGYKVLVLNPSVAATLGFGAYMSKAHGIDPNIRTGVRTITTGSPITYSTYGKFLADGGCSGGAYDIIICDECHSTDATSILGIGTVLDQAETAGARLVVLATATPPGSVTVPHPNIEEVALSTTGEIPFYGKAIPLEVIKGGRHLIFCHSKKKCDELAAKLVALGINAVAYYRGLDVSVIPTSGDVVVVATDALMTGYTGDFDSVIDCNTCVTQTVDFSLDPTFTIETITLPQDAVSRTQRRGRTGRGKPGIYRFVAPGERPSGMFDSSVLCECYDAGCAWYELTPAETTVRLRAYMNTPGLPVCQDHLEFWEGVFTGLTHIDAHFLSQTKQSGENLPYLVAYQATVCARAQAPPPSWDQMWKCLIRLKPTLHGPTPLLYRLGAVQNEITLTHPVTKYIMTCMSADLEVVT

Compound | IC50
C=C[C@@H]1C[C@]1(NC(=O)[C@@H]1C[C@@]2(CN1C(=O)[C@@H](NC(=O)[C@@H](N1CCCC1=O)C(C)(C)C)C(C)(C)C)C(C)(C)C21CCC1)C(=O)NS(=O)(=O)C1CC1 [Compound 35, (5R,8S)-N-{(1R,2S)-1-[(cyclopropylsulfonyl)carba-moyl]-2-vinylcyclopropyl}-7-[(2S)-2-{[(2S)-3,3-dimethyl-2-(2-oxopyrrolidin-1-yl)butanoyl]amino}-3,3-dimethylbutanoyl]-10,10-dimethyl-7-azadispiro[3.0.4.1]decane-8-carboxamide] | 9 nM
C=C[C@@H]1C[C@]1(NC(=O)[C@@H]1C[C@@]2(CN1C(=O)[C@@H](NC(=O)[C@@H](NC(=O)[C@@H]1CCCCN1C(C)C)C(C)(C)CC)C(C)(C)C)C(C)(C)C21CCC1)C(=O)NS(=O)(=O)C1CC1 [Compound 36, (5R,8S)-N-{(1R,2S)-1-[(cyclopropylsulfonyl)carba-moyl]-2-vinylcyclopropyl}-7-[(2S)-2-{[(2S)-2-({[(2S)-1-isopropylpiperidin-2-yl]carbonyl}amino)-3,3-dimethylpentanoyl]amino}-3,3-dimethylbutanoyl]-10,10-dimethyl-7-azadispiro[3.0.4.1]decane-8-carboxamide] | 1 nM
C=C[C@@H]1C[C@]1(NC(=O)[C@@H]1C[C@@]2(CN1C(=O)[C@@H](NC(=O)[C@@H]1CCCCCCCN3CCCC[C@H]3C(=O)N1)C(C)(C)C)C(C)(C)C21CCC1)C(=O)NS(=O)(=O)C1CC1 [Compound 38, (5R,8S)-N-{(1R,2S)-1-[(cyclopropylsulfonyl)carba-moyl]-2-vinylcyclopropyl}-7-[(2S)-3,3-dimethyl-2-({[(3S,15aS)-1-oxotetradecahydro-2H-pyrido[1,2-a][1,4]diazacyclododecin-3-yl]carbonyl}amino)butanoyl]-10,10-dimethyl-7-azadispiro[3.0.4.1]decane-8-carboxamide] | 8 nM
C=C[C@@H]1C[C@]1(NC(=O)[C@@H]1C[C@@]2(CN1C(=O)[C@@H](NC(=O)[C@@H](NC(=O)c1cc(C(C)C)n[nH]1)C(C)(C)C)C(C)(C)C)C(C)(C)C21CCC1)C(=O)NS(=O)(=O)C1CC1 [Compound 39, (5R,8S)-N-{(1R,2S)-1-[(cyclopropylsulfonyl)carba-moyl]-2-vinylcyclopropyl}-7-[(2S)-2-{[(2S)-2-{[(3-isopropyl-1H-pyrazol-5-yl)carbonyl]amino}-3,3-dimethylbutanoyl]amino}-3,3-dimethylbutanoyl]-10,10-dimethyl-7-azadispiro[3.0.4.1]decane-8-carboxamide] | 6 nM
C=C[C@@H]1C[C@]1(NC(=O)[C@@H]1C[C@@]2(CN1C(=O)[C@@H](NC(=O)[C@@H](NC(=O)C1CNC(=O)N1)C(C)(C)C)C(C)(C)C)C(C)(C)C21CCC1)C(=O)NS(=O)(=O)C1CC1 (stereo partly drawn) [Compound 40, (5R,8S)-N-{(1R,2S)-1-[(cyclopropylsulfonyl)carba-moyl]-2-vinylcyclopropyl}-7-[(2S)-2-{[(2S)-3,3-dimethyl-2-{[(2-oxoimidazolidin-4-yl)carbonyl]amino}butanoyl]amino}-3,3-dimethylbutanoyl]-10,10-dimethyl-7-azadispiro[3.0.4.1]decane-8-carboxamide] | 10 nM
C=C[C@@H]1C[C@]1(NC(=O)[C@@H]1C[C@@]2(CN1C(=O)[C@@H](NC(=O)[C@@H](NC(=O)c1ncn[nH]1)C(C)(C)C)C(C)(C)C)C(C)(C)C21CCC1)C(=O)NS(=O)(=O)C1CC1 [Compound 41, (5R,8S)-N-{(1R,2S)-1-[(cyclopropylsulfonyl)carba-moyl]-2-vinylcyclopropyl}-7-[(2S)-2-({(2S)-3,3-dimethyl-2-[(1H-1,2,4-triazol-5-ylcarbonyl)amino]butanoyl}amino)-3,3-dimethylbutanoyl]-10,10-dimethyl-7-azadispiro[3.0.4.1]decane-8-carboxamide] | 25 nM
C=C[C@@H]1C[C@]1(NC(=O)[C@@H]1C[C@@]2(CN1C(=O)[C@@H](NC(=O)[C@@H](NC(=O)c1c[nH]c(=O)[nH]1)C(C)(C)C)C(C)(C)C)C(C)(C)C21CCC1)C(=O)NS(=O)(=O)C1CC1 [Compound 44, (5R,8S)-N-{(1R,2S)-1-[(cyclopropylsulfonyl)carba-moyl]-2-vinylcyclopropyl}-7-[(2S)-2-{[(2S)-3,3-dimethyl-2-{[(2-oxo-2,3-dihydro-1H-imidazol-4-yl)carbonyl]amino}butanoyl]amino}-3,3-dimethylbutanoyl]-10,10-dimethyl-7-azadispiro[3.0.4.1]decane-8-carboxamide] | 2 nM

same assay, conditions: read-out: Protease IC50

Compound | IC50
C=C[C@@H]1C[C@]1(NC(=O)[C@@H]1C[C@@]2(CN1C(=O)[C@@H](NC(=O)N[C@H](C(=O)N(C)C)C(C)(C)C)C(C)(C)C)C(C)(C)C21CCC1)C(=O)NS(=O)(=O)C1CC1 [Compound 30, (5R,8S)-N-{(1R,2S)-1-[(cyclopropylsulfonyl)carba-moyl]-2-vinylcyclopropyl}-7-[(2S)-2-({[(1S)-1-(dimethylcarbamoyl)-2,2-dimethylpropyl]carbamoyl}amino)-3,3-dimethylbutanoyl]-10,10-dimethyl-7-azadispiro[3.0.4.1]decane-8-carboxamide] | 8 nM
C=C[C@@H]1C[C@]1(NC(=O)[C@@H]1C[C@@]2(CN1C(=O)[C@@H](NC(=O)N[C@H](C(=O)N1CCOCC1)C(C)(C)C)C(C)(C)C)C(C)(C)C21CCC1)C(=O)NS(=O)(=O)C1CC1 [Compound 31, (5R,8S)-N-{(1R,2S)-1-[(cyclopropylsulfonyl)carba-moyl]-2-vinylcyclopropyl}-7-[(2S)-2-({[(1S)-2,2-dimethyl-1-(morpholin-4-ylcarbonyl)propyl]carbamoyl}amino)-3,3-dimethylbutanoyl]-10,10-dimethyl-7-azadispiro[3.0.4.1]decane-8-carboxamide] | 15 nM
C=C[C@@H]1C[C@]1(NC(=O)[C@@H]1C[C@@]2(CN1C(=O)[C@@H](NC(=O)N[C@H](C(=O)NC)C(C)(C)C)C(C)(C)C)C(C)(C)C21CCC1)C(=O)NS(=O)(=O)C1CC1 [Compound 32, (5R,8S)-N-{(1R,2S)-1-[(cyclopropylsulfonyl)carba-moyl]-2-vinylcyclopropyl}-7-[(2S)-2-({[(1S)-2,2-dimethyl-1-(methylcarbamoyl)propyl]carbamoyl}amino)-3,3-dimethylbutanoyl]-10,10-dimethyl-7-azadispiro[3.0.4.1]decane-8-carboxamide] | 30 nM
C=C[C@@H]1C[C@]1(NC(=O)[C@@H]1C[C@@]2(CN1C(=O)[C@@H](NC(=O)N[C@H](CC(=O)N(C)C)C(C)(C)C)C(C)(C)C)C(C)(C)C21CCC1)C(=O)NS(=O)(=O)C1CC1 [Compound 33, (5R,8S)-N-{(1R,2S)-1-[(cyclopropylsulfonyl)carba-moyl]-2-vinylcyclopropyl}-7-{(2S)-2-[({(1R)-1-[2-(dimethylamino)-2-oxoethyl]-2,2-dimethylpropyl}carbamoyl)amino]-3,3-dimethylbutanoyl}-10,10-dimethyl-7-azadispiro[3.0.4.1]decane-8-carboxamide] | 1400 nM
C=C[C@@H]1C[C@]1(NC(=O)[C@@H]1C[C@@]2(CN1C(=O)[C@@H](NC(=O)N[C@H](CC(=O)N1CCOCC1)C(C)(C)C)C(C)(C)C)C(C)(C)C21CCC1)C(=O)NS(=O)(=O)C1CC1 [Compound 34, (5R,8S)-N-{(1R,2S)-1-[(cyclopropylsulfonyl)carba-moyl]-2-vinylcyclopropyl}-7-[(2S)-2-({[(1R)-2,2-dimethyl-1-(2-morpholin-4-yl-2-oxoethyl)propyl]carbamoyl}amino)-3,3-dimethylbutanoyl]-10,10-dimethyl-7-azadispiro[3.0.4.1]decane-8-carboxamide] | 2150 nM
C=C[C@@H]1C[C@]1(NC(=O)[C@@H]1C[C@@]2(CN1C(=O)[C@@H](NC(=O)NC13CC4CC(CC(C4)C1)C3)C(C)(C)C)C(C)(C)C21CCC1)C(=O)NS(=O)(=O)C1CC1 [Compound 37, (5R,8S)-7-{(2S)-2-[(adamantan-1-ylcarbamoyl)amino]-3,3-dimethylbutanoyl}-N-{(1R,2S)-1-[(cyclopropylsulfonyl)carba-moyl]-2-vinylcyclopropyl}-10,10-dimethyl-7-azadispiro[3.0.4.1]decane-8-carboxamide] | 45 nM
C=C[C@@H]1C[C@]1(NC(=O)[C@@H]1C[C@@]2(CN1C(=O)[C@@H](NC(=O)O[C@H](C(=O)N(C)C)C(C)(C)C)C(C)(C)C)C(C)(C)C21CCC1)C(=O)NS(=O)(=O)C1CC1 [Compound 42, (1S)-1-(dimethylcarbamoyl)-2,2-dimethylpropyl [(1S)-1-{[(5R,8S)-8-({(1R,2S)-1-[(cyclopropylsulfonyl)carba-moyl]-2-vinylcyclopropyl}carbamoyl)-10,10-dimethyl-7-azadispiro[3.0.4.1]dec-7-yl]carbonyl}-2,2-dimethylpropyl]carbamate] | 140 nM
C=C[C@@H]1C[C@]1(NC(=O)[C@@H]1C[C@@]2(CN1C(=O)[C@@H](CC(=O)OC(C)(C)C)C(C)(C)C)C(C)(C)C21CCC1)C(=O)NS(=O)(=O)C1CC1 [Compound 43, tert-butyl (3S)-3-{[(5R,8S)-8-({(1R,2S)-1-[(cyclopropylsulfonyl)carba-moyl]-2-vinylcyclopropyl}carbamoyl)-10,10-dimethyl-7-azadispiro[3.0.4.1]dec-7-yl]carbonyl}-4,4-dimethylpentanoate] | 450 nM
C=C[C@@H]1C[C@]1(NC(=O)[C@@H]1C[C@@]2(CN1C(=O)[C@@H](NC(=O)[C@@H](CC(=O)OC(C)(C)C)C(C)(C)C)C(C)(C)C)C(C)(C)C21CCC1)C(=O)NS(=O)(=O)C1CC1 [Compound 45, tert-butyl (3S)-3-{[(1S)-1-{[(5R,8S)-8-({(1R,2S)-1-[(cyclopropylsulfonyl)carba-moyl]-2-vinylcyclopropyl}carbamoyl)-10,10-dimethyl-7-azadispiro[3.0.4.1]dec-7-yl]carbonyl}-2,2-dimethylpropyl]carbamoyl}-4,4-dimethylpentanoate] | 65 nM
